Patent US20070026506A1, “METHOD FOR THE PRODUCTION OF TAXOL AND/OR TAXANES FROM CULTURES OF HAZEL CELLS” (Centro Biotecnologie Avanzate, priority 2005, published 2007)

How the values were obtained:
Format in all cases: cell-based
[1] = system: explants of Corylus avellana; test: callus induction from explants of Corylus avellana; details: for CALLUS INDUCTION 15 days Leaves (%) / CALLUS INDUCTION 30 days Leaves (%): C. avellana leaves; for CALLUS INDUCTION 15 days Seeds (%) / CALLUS INDUCTION 30 days Seeds (%): C. avellana seeds; for CALLUS INDUCTION 15 days Stems (%) / CALLUS INDUCTION 30 days Stems (%): C. avellana stems
Protocol: (§1) Therefore, in vitro cultures of plant tissues were prepared using leaves, stems and seeds of Corylus avellana (hazel) and of Taxus baccata. Both species used derive from land cultivations in Piedmont and Liguria.
(§2) The plant material was first sterilised, immersing it in a 5% NaClO solution for 20 minutes, and then washed with sterile distilled water three times.
(§3) The plant parts were fragmented and transferred into sterile Petri dishes containing MS solid medium at a concentration of 4.3 g/l, containing vitamins (1 ml/l), sucrose (20 g/l), agar (10 g/l) and phytohormones at different concentrations, all previously sterilised in an autoclave at 121° C. for 15 minutes.
(§4) In the preparation of cultures in vitro 2,4-dichlorophenoxyacetic acid (2,4-D), naphthaleneacetic acid (NAA), benzyladenine (BA) were used as phytohormones, in the following combinations and concentrations: • 2,4-D 1 mg/l • 2,4-D 0.5 mg/l • BA 1 mg/l • BA 0.5 mg/l • 2,4-D 0.5 mg/l+BA 1 mg/l • 2,4-D 1 mg/l+BA 0.5 mg/l • NAA 2 mg/l • NAA 2 mg/l+BA 0.5 mg/l Callus Induction
(§5) For each type of plant tissue (leaf, stem, seed) and for each species (taxus, hazel) at least 96 dishes were prepared: 12 dishes for each hormone concentration or combination. The dishes containing the plant material were kept inside a phytochamber, in the dark and at a constant temperature of 26° C.
(§6) The fragments were transferred, every 15 days, into new dishes with fresh medium containing the corresponding starting hormone or mixture of hormones. After 15 and 30 days from the culturing of the hazel differentiated tissue explants, the formation of the callus was evaluated. The formation of the callus for the taxus was evaluated at 30 and at 60 days, since before then the callus was not clear.

callus of Taxus baccata = test: regeneration of callus (formation of young plants), Taxus baccata; details: about three months from culturing
[2] = system: callus of Corylus avellana; test: regeneration of callus (formation of young plants), Corylus avellana; details: about three months from culturing
[3] = system: explants of Taxus baccata; test: callus induction from explants of Taxus baccata; details: for CALLUS INDUCTION 30 days Leaves (%) / CALLUS INDUCTION 60 days Leaves (%): T. baccata leaves; for CALLUS INDUCTION 30 days Seeds (%) / CALLUS INDUCTION 60 days Seeds (%): T. baccata seeds; for CALLUS INDUCTION 30 days Stems (%) / CALLUS INDUCTION 60 days Stems (%): T. baccata stems
Protocol: as §1, §2, §3, §4, §5, §6

In the case of O=C(O)COc1ccc(Cl)cc1Cl [2,4-D, 2,4-dichlorophenoxyacetic acid], the “CALLUS INDUCTION 15 days Leaves (%)” value ([1]; hormone 0.5 mg/l) is reported as 40.8%, the “CALLUS INDUCTION 15 days Leaves (%)” value ([1]; hormone 1 mg/l) is reported as 35.3% and the “CALLUS INDUCTION 30 days Leaves (%)” value ([1]; hormone 0.5 mg/l) is reported as 41.86%. For the same molecule, the “CALLUS INDUCTION 30 days Leaves (%)” value ([1]; hormone 1 mg/l) was 35.5%, the “CALLUS INDUCTION 15 days Seeds (%)” value ([1]; hormone 0.5 mg/l) was 27.7% and the “CALLUS INDUCTION 15 days Seeds (%)” value ([1]; hormone 1 mg/l) was 28.3%. The “CALLUS INDUCTION 30 days Seeds (%)” value ([1]; hormone 0.5 mg/l) was 61.6%, the “CALLUS INDUCTION 30 days Seeds (%)” value ([1]; hormone 1 mg/l) was 56.2% and the “CALLUS INDUCTION 15 days Stems (%)” value ([1]; hormone 0.5 mg/l) was 30.5%. The “CALLUS INDUCTION 15 days Stems (%)” value ([1]; hormone 1 mg/l) was 25.0%, the “CALLUS INDUCTION 30 days Stems (%)” value ([1]; hormone 0.5 mg/l) was 75.0% and the “CALLUS INDUCTION 30 days Stems (%)” value ([1]; hormone 1 mg/l) was 68.5%. For the same molecule, the “FORMATION OF YOUNG PLANTS (%) T. baccata” value (callus of Taxus baccata; hormone 0.5 mg/l) was 0%, the “FORMATION OF YOUNG PLANTS (%) T. baccata” value (callus of Taxus baccata; hormone 1 mg/l) was 0% and the “FORMATION OF YOUNG PLANTS (%) C. avellana” value ([2]; hormone 0.5 mg/l) was 15.8%. The “FORMATION OF YOUNG PLANTS (%) C. avellana” value ([2]; hormone 1 mg/l) was 15.5%, the “CALLUS INDUCTION 30 days Leaves (%)” value ([3]; hormone 0.5 mg/l) was 10.9% and the “CALLUS INDUCTION 30 days Leaves (%)” value ([3]; hormone 1 mg/l) was 25.3%. The “CALLUS INDUCTION 60 days Leaves (%)” value ([3]; hormone 0.5 mg/l) was 63.8%, the “CALLUS INDUCTION 60 days Leaves (%)” value ([3]; hormone 1 mg/l) was 56.3% and the “CALLUS INDUCTION 30 days Seeds (%)” value ([3]; hormone 0.5 mg/l) was 17.4%. The “CALLUS INDUCTION 30 days Seeds (%)” value ([3]; hormone 1 mg/l) was 26.5%, the “CALLUS INDUCTION 60 days Seeds (%)” value ([3]; hormone 0.5 mg/l) was 43.7% and the “CALLUS INDUCTION 60 days Seeds (%)” value ([3]; hormone 1 mg/l) was 37.7%. The “CALLUS INDUCTION 30 days Stems (%)” value ([3]; hormone 0.5 mg/l) was 46.8%, the “CALLUS INDUCTION 30 days Stems (%)” value ([3]; hormone 1 mg/l) was 67.0% and the “CALLUS INDUCTION 60 days Stems (%)” value ([3]; hormone 0.5 mg/l) was 65.8%. For the same molecule, the “CALLUS INDUCTION 60 days Stems (%)” value ([3]; hormone 1 mg/l) was 76.3%.
In the case of c1ccc(CNc2ncnc3nc[nH]c23)cc1 [BA, benzyladenine], the “CALLUS INDUCTION 15 days Leaves (%)” value ([1]; hormone 0.5 mg/l) is reported as 1.7%, the “CALLUS INDUCTION 15 days Leaves (%)” value ([1]; hormone 1 mg/l) is reported as 0% and the “CALLUS INDUCTION 30 days Leaves (%)” value ([1]; hormone 0.5 mg/l) is reported as 4.6%. The “CALLUS INDUCTION 30 days Leaves (%)” value ([1]; hormone 1 mg/l) was 4.6%, the “CALLUS INDUCTION 15 days Seeds (%)” value ([1]; hormone 0.5 mg/l) was 5.1% and the “CALLUS INDUCTION 15 days Seeds (%)” value ([1]; hormone 1 mg/l) was 4.0%. For the same molecule, the “CALLUS INDUCTION 30 days Seeds (%)” value ([1]; hormone 0.5 mg/l) was 10.3%, the “CALLUS INDUCTION 30 days Seeds (%)” value ([1]; hormone 1 mg/l) was 13.8% and the “CALLUS INDUCTION 15 days Stems (%)” value ([1]; hormone 0.5 mg/l) was 0%. The “CALLUS INDUCTION 15 days Stems (%)” value ([1]; hormone 1 mg/l) was 2.5%, the “CALLUS INDUCTION 30 days Stems (%)” value ([1]; hormone 0.5 mg/l) was 0% and the “CALLUS INDUCTION 30 days Stems (%)” value ([1]; hormone 1 mg/l) was 15.0%. For the same molecule, the “suitability for inducing callus from hazel” value ([1]; used alone at a concentration of 0.5 and 1 mg/l) was “least suitable for inducing callus from hazel”, the “FORMATION OF YOUNG PLANTS (%) T. baccata” value (callus of Taxus baccata; hormone 0.5 mg/l) was 0% and the “FORMATION OF YOUNG PLANTS (%) T. baccata” value (callus of Taxus baccata; hormone 1 mg/l) was 0%. For the same molecule, the “FORMATION OF YOUNG PLANTS (%) C. avellana” value ([2]; hormone 0.5 mg/l) was 13.3%, the “FORMATION OF YOUNG PLANTS (%) C. avellana” value ([2]; hormone 1 mg/l) was 8.7% and the “CALLUS INDUCTION 30 days Leaves (%)” value ([3]; hormone 0.5 mg/l) was 2.0%. For the same molecule, the “CALLUS INDUCTION 30 days Leaves (%)” value ([3]; hormone 1 mg/l) was 2.0%, the “CALLUS INDUCTION 60 days Leaves (%)” value ([3]; hormone 0.5 mg/l) was 4.5% and the “CALLUS INDUCTION 60 days Leaves (%)” value ([3]; hormone 1 mg/l) was 3.0%. For the same molecule, the “CALLUS INDUCTION 30 days Seeds (%)” value ([3]; hormone 0.5 mg/l) was 6.2%, the “CALLUS INDUCTION 30 days Seeds (%)” value ([3]; hormone 1 mg/l) was 0% and the “CALLUS INDUCTION 60 days Seeds (%)” value ([3]; hormone 0.5 mg/l) was 32.7%. For the same molecule, the “CALLUS INDUCTION 60 days Seeds (%)” value ([3]; hormone 1 mg/l) was 0%, the “CALLUS INDUCTION 30 days Stems (%)” value ([3]; hormone 0.5 mg/l) was 2.0% and the “CALLUS INDUCTION 30 days Stems (%)” value ([3]; hormone 1 mg/l) was 2.5%. The “CALLUS INDUCTION 60 days Stems (%)” value ([3]; hormone 0.5 mg/l) was 9.0%, the “CALLUS INDUCTION 60 days Stems (%)” value ([3]; hormone 1 mg/l) was 2.8% and the “activity in callus induction of taxus cultures” value ([3]; taxus cultures, exception stated for callus from seed at 60 days) was “not to be very active”.
With O=C(O)Cc1cccc2ccccc12 [NAA, naphthaleneacetic acid] the “CALLUS INDUCTION 15 days Leaves (%)” value ([1]; hormone 2 mg/l) was 8.3%, the “CALLUS INDUCTION 30 days Leaves (%)” value ([1]; hormone 2 mg/l) was 22.1% and the “CALLUS INDUCTION 15 days Seeds (%)” value ([1]; hormone 2 mg/l) was 4.4%. The “CALLUS INDUCTION 30 days Seeds (%)” value ([1]; hormone 2 mg/l) was 41.3%, the “CALLUS INDUCTION 15 days Stems (%)” value ([1]; hormone 2 mg/l) was 8.3% and the “CALLUS INDUCTION 30 days Stems (%)” value ([1]; hormone 2 mg/l) was 5.4%. For the same molecule, the “FORMATION OF YOUNG PLANTS (%) T. baccata” value (callus of Taxus baccata; hormone 2 mg/l) was 1%, the “FORMATION OF YOUNG PLANTS (%) C. avellana” value ([2]; hormone 2 mg/l) was 14.4% and the “CALLUS INDUCTION 30 days Leaves (%)” value ([3]; hormone 2 mg/l) was 23.8%. The “CALLUS INDUCTION 60 days Leaves (%)” value ([3]; hormone 2 mg/l) was 33.0%, the “CALLUS INDUCTION 30 days Seeds (%)” value ([3]; hormone 2 mg/l) was 28.0% and the “CALLUS INDUCTION 60 days Seeds (%)” value ([3]; hormone 2 mg/l) was 52.0%. The “CALLUS INDUCTION 30 days Stems (%)” value ([3]; hormone 2 mg/l) was 55.0% and the “CALLUS INDUCTION 60 days Stems (%)” value ([3]; hormone 2 mg/l) was 56.3%.
